Experiment [1] addresses AktK (Homo sapiens, UniProt P31749). Description: Luciferase-coupled chemiluminescence kinase assay (ATP consumption). In kind it is biochemical. The following applies: read-out: AKT-1 IC50. In a few lines:
(§1)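 Activity is read as ATP depletion: luciferase-luciferin reagent added after a 3 h ambient-temperature kinase reaction, with total ATP use limited to 25-60%. Before ATP addition, 2.5-5 nM kinase and compound were preincubated 30 min in Tris pH 7.5/MgCl2/TX-100/DTT buffer; […].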

Experiment [2] deals with p70S6K (Homo sapiens, UniProt P23443). Described as above. The class given is biochemical. A digest of the protocol: as §1

Where two headings read alike, the source gives them in different places. Some results are limits rather than exact numbers.

Chain of p70S6K (P23443 whole entry): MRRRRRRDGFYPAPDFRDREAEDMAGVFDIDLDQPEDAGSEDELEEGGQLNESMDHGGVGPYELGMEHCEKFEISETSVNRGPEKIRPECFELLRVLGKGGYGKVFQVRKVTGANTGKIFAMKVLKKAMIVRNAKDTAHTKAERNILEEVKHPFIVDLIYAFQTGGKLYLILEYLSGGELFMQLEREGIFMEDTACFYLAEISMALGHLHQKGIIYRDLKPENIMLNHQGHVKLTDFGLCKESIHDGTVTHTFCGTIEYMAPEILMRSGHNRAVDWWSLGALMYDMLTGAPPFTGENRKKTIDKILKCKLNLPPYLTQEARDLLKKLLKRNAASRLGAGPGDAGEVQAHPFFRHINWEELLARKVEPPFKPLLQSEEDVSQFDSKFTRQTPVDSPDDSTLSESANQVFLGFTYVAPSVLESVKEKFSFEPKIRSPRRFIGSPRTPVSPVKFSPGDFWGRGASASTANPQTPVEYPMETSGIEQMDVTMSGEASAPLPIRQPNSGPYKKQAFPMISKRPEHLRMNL
Chain of AktK (P31749 whole entry): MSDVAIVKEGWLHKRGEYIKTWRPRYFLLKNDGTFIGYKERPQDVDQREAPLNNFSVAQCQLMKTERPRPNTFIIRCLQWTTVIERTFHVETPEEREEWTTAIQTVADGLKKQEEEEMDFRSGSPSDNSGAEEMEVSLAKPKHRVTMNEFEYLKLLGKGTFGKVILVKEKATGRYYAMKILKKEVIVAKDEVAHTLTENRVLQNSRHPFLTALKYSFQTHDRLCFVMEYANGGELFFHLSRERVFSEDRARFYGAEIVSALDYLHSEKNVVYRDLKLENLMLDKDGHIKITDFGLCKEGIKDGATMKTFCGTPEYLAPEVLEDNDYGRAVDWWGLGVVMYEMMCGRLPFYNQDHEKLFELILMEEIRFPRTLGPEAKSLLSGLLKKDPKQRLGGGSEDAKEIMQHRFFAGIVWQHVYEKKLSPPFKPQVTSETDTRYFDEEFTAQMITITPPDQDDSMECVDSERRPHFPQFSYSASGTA

The term IC50 denotes the concentration needed to halve the response being measured. For the compound `CCCc1n[nH]c2ncnc(N3CCN(c4cc(Cl)ccc4C)CC3)c12` [Entry 330, 4-[4-(5-chloro-2-methylphenyl)piperazin-1-yl]-3-propyl-1H-pyrazolo[3,4-d]pyrimidine], the IC50 in experiment [1] is 1000 to 10000 nM; in experiment [2] it was less than 100 nM.

Turning to `COC(=O)/C=C/c1n[nH]c2ncnc(N3CCN(c4cc(Cl)ccc4C)CC3)c12` [Entry 372, methyl (2E)-3-{4-[4-(5-chloro-2-methylphenyl)piperazin-1-yl]-1H-pyrazolo[3,4-d]pyrimidin-3-yl}prop-2-enoate], the IC50 is 1000 to 10000 nM in experiment [1] and less than 100 nM in experiment [2].

In the case of `CCc1n[nH]c2ncnc(N3CCN(c4cc(Cl)cc(OCCN5CCN(C)CC5)c4C)CC3)c12` [Entry 30, 4-[4-(5-chloro-2-methyl-3-{[2-(4-methylpiperazin-1-yl)ethyl]oxy}phenyl)piperazin-1-yl]-3-ethyl-1H-pyrazolo[3,4-d]pyrimidine], the IC50 is 100 to 1000 nM in experiment [1] (Table 1, class symbols per key) and less than 100 nM in experiment [2] (Table 1, class symbols per key).

Take `Cc1c(OCCC2CCN(C)CC2)cc(Cl)cc1N1CCN(c2ncnc3[nH]nc(Br)c23)CC1` [Entry 89, 3-bromo-4-[4-(5-chloro-2-methyl-3-{[2-(1-methyl-piperidin-4-yl)ethyl]oxy}phenyl)piperazin-1-yl]-1H-pyrazolo[3,4-d]pyrimidine]: the IC50 in experiment [1] (Table 1, class symbols per key) was less than 100 nM; in experiment [2] (Table 1, class symbols per key), less than 100 nM.

With `Fc1ccc(N2CCN(c3ncnc4[nH]nc(Br)c34)CC2)cc1F` [Entry 76, 3-bromo-4-[4-(3,4-difluorophenyl)piperazin-1-yl]-1H-pyrazolo[3,4-d]pyrimidine], the IC50 in experiment [1] (Table 1, class symbols per key) was not below 10000 nM; in experiment [2] (Table 1, class symbols per key) it was 100 to 1000 nM.

`CCc1nc(N2CCN(c3cc(Cl)ccc3C)CC2)c2cn[nH]c2n1` [Entry 325, 4-[4-(5-chloro-2-methylphenyl)piperazin-1-yl]-6-ethyl-1H-pyrazolo[3,4-d]pyrimidine]: the IC50 in experiment [1] and in experiment [2] was 1000 to 10000 nM throughout.

For the compound `Clc1ccc(N2CCN(c3ncnc4[nH]nc(Br)c34)CC2)c(Cl)c1` [Entry 77, 3-bromo-4-[4-(2,4-dichlorophenyl)piperazin-1-yl]-1H-pyrazolo[3,4-d]pyrimidine], the IC50 was not below 10000 nM in experiment [1] (Table 1, class symbols per key) and 100 to 1000 nM in experiment [2] (Table 1, class symbols per key).

For the compound `Brc1n[nH]c2ncnc(N3CCN(c4cccc(OCCN5CCCCC5)c4)CC3)c12` [Entry 142, 3-bromo-4-(4-{3-[(2-piperidin-1-ylethyl)oxy]phenyl}piperazin-1-yl)-1H-pyrazolo[3,4-d]pyrimidine], the IC50 is 1000 to 10000 nM in experiment [1] (Table 1, class symbols per key) and 100 to 1000 nM in experiment [2] (Table 1, class symbols per key).

Turning to `Cc1c(NCCN2CCCC2)cc(Cl)cc1N1CCN(c2ncnc3[nH]nc(C(C)C)c23)CC1` [Entry 138, 5-chloro-2-methyl-3-{4-[3-(1-methylethyl)-1H-pyrazolo[3,4-d]pyrimidin-4-yl]piperazin-1-yl}-N-(2-pyrrolidin-1-ylethyl)aniline], the IC50 in experiment [1] (Table 1, class symbols per key) is 1000 to 10000 nM; in experiment [2] (Table 1, class symbols per key) it was less than 100 nM.

For `Cc1ccc(Cl)cc1N1CCN(c2ncnc3[nH]nc(C(F)(F)F)c23)CC1` [Entry 348, 4-[4-(5-chloro-2-methylphenyl)piperazin-1-yl]-3-(trifluoromethyl)-1H-pyrazolo[3,4-d]pyrimidine], the IC50 is 1000 to 10000 nM in experiment [1] and less than 100 nM in experiment [2].

For `Cc1ccc(C(=O)Nc2ccccc2)cc1N1CCN(c2ncnc3[nH]nc(Br)c23)CC1` [Entry 187, 3-[4-(3-bromo-1H-pyrazolo[3,4-d]pyrimidin-4-yl)piperazin-1-yl]-4-methyl-N-phenylbenzamide], the concentration for half-maximal inhibition (IC50) was less than 100 nM in experiment [1] (Table 1, class symbols per key) and less than 100 nM in experiment [2] (Table 1, class symbols per key).

Take `Cc1c(NCCN2CCCC2)cc(COCC(F)(F)F)cc1N1CCN(c2ncnc3[nH]nc(Br)c23)CC1` [Entry 280, 3-[4-(3-bromo-1H-pyrazolo[3,4-d]pyrimidin-4-yl)piperazin-1-yl]-2-methyl-N-(2-pyrrolidin-1-yl-ethyl)-5-{[(2,2,2-trifluoroethyl)oxy]methyl}aniline]: the IC50 in experiment [1] (Table 1, class symbols per key) is less than 100 nM; in experiment [2] (Table 1, class symbols per key) it was less than 100 nM.

Take `Fc1cc(NCCN2CCCC2)c(Cl)c(N2CCN(c3ncnc4[nH]nc(Br)c34)CC2)c1` [Entry 129, 3-[4-(3-bromo-1H-pyrazolo[3,4-d]pyrimidin-4-yl)piperazin-1-yl]-2-chloro-5-fluoro-N-(2-pyrrolidin-1-ylethyl)aniline]: the IC50 in experiment [1] (Table 1, class symbols per key) was 100 to 1000 nM; in experiment [2] (Table 1, class symbols per key), less than 100 nM.

As for `CCc1n[nH]c2ncnc(N3CCN(c4cccc(Cl)c4)C(C(=O)NC4CCN(C)CC4)C3)c12` (stereo not drawn) [Entry 382, 1-(3-chlorophenyl)-4-(3-ethyl-1H-pyrazolo[3,4-d]pyrimidin-4-yl)-N-(1-methylpiperidin-4-yl)piperazine-2-carboxamide], the IC50 in experiment [1] is not below 10000 nM; in experiment [2], 1000 to 10000 nM.

Take `CCOC(=O)c1cnc(C(F)(F)F)nc1N1CCN(c2ncnc3[nH]nc(CC)c23)CC1` [Entry 112, ethyl 4-[4-(3-ethyl-1H-pyrazolo[3,4-d]pyrimidin-4-yl)piperazin-1-yl]-2-(trifluoromethyl)pyrimidine-5-carboxylate]: the IC50 was not below 10000 nM in experiment [1] (Table 1, class symbols per key) and 1000 to 10000 nM in experiment [2] (Table 1, class symbols per key).

Regarding `Cc1ccc(Cl)cc1N1CCN(c2nc(-c3ccccc3)nc3[nH]nc(C)c23)CC1` [Entry 322, 4-[4-(5-chloro-2-methylphenyl)piperazin-1-yl]-3-methyl-6-phenyl-1H-pyrazolo[3,4-d]pyrimidine], the IC50 in experiment [1] and in experiment [2] was 1000 to 10000 nM throughout.

As for `Cc1c(NCCN2CCCC2)cc(-c2nccs2)cc1N1CCN(c2ncnc3[nH]nc(Br)c23)CC1` [Entry 233, 3-[4-(3-bromo-1H-pyrazolo[3,4-d]pyrimidin-4-yl)piperazin-1-yl]-2-methyl-N-(2-pyrrolidin-1-ylethyl)-5-(1,3-thiazol-2-yl)aniline], the IC50 was less than 100 nM in experiment [1] (Table 1, class symbols per key) and less than 100 nM in experiment [2] (Table 1, class symbols per key).

For `CCc1n[nH]c2ncnc(N3CCN(c4cc(Cl)c(OCCCN(C)C)cc4C)CC3)c12` [Entry 388, 3-({2-chloro-4-[4-(3-ethyl-1H-pyrazolo[3,4-d]pyrimidin-4-yl)piperazin-1-yl]-5-methylphenyl}oxy)-N,N-dimethylpropan-1-amine], the half-inhibitory concentration (IC50) in experiment [1] is 1000 to 10000 nM; in experiment [2], 100 to 1000 nM.

Turning to `FC(F)(F)c1ccc(N2CCN(c3ncnc4[nH]nc(Br)c34)CC2)cc1` [Entry 124, 3-bromo-4-{4-[4-(trifluoromethyl)phenyl]piperazin-1-yl}-1H-pyrazolo[3,4-d]pyrimidine], the IC50 was not below 10000 nM in experiment [1] (Table 1, class symbols per key) and 100 to 1000 nM in experiment [2] (Table 1, class symbols per key).

`Cc1cc(F)c(-c2ccc(F)c(F)c2)cc1N1CCN(c2ncnc3[nH]nc(Br)c23)CC1` [Entry 266, 3-bromo-4-[4-(3′,4′,6-trifluoro-4-methylbiphenyl-3-yl)piperazin-1-yl]-1H-pyrazolo[3,4-d]pyrimidine]: the IC50 in experiment [1] (Table 1, class symbols per key) is 100 to 1000 nM; in experiment [2] (Table 1, class symbols per key), less than 100 nM.

Turning to `Cc1c(CCCN2CCCCC2)cc(Cl)cc1N1CCN(c2ncnc3[nH]nc(Br)c23)CC1` [Entry 27, 3-bromo-4-{4-[5-chloro-2-methyl-3-(3-piperidin-1-ylpropyl)phenyl]piperazin-1-yl}-1H-pyrazolo[3,4-d]pyrimidine], the IC50 was less than 100 nM in experiment [1] (Table 1, class symbols per key) and less than 100 nM in experiment [2] (Table 1, class symbols per key).

As for `COc1cccc(-c2n[nH]c3ncnc(N4CCN(c5cc(Cl)ccc5C)CC4)c23)c1` [Entry 365, 4-[4-(5-chloro-2-methylphenyl)piperazin-1-yl]-3-[3-(methyloxy)phenyl]-1H-pyrazolo[3,4-d]pyrimidine], the IC50 in experiment [1] and in experiment [2] was 1000 to 10000 nM each time.

Consider `CCc1n[nH]c2ncnc(N3CCN(c4cc(Cl)cc(NCCN(C)C(C)C)c4C)CC3)c12` [Entry 146, N′-{5-chloro-3-[4-(3-ethyl-1H-pyrazolo[3,4-d]pyrimidin-4-yl)piperazin-1-yl]-2-methylphenyl}-N-methyl-N-(1-methylethyl)ethane-1,2-diamine], for which the IC50 was 100 to 1000 nM in experiment [1] (Table 1, class symbols per key) and less than 100 nM in experiment [2] (Table 1, class symbols per key).

In the case of `Cc1ccc(Cl)cc1N1CCN(c2ncnc3[nH]nc(Nc4ccccc4)c23)CC1` [Entry 332, 4-[4-(5-chloro-2-methylphenyl)piperazin-1-yl]-N-phenyl-1H-pyrazolo[3,4-d]pyrimidin-3-amine], the IC50 in experiment [1] and in experiment [2] was 1000 to 10000 nM in each case.

`Brc1n[nH]c2ncnc(N3CCN(c4nccnc4OCCN4CCCCC4)CC3)c12` [Entry 167, 3-bromo-4-(4-{3-[(2-piperidin-1-ylethyl)oxy]pyrazin-2-yl}piperazin-1-yl)-1H-pyrazolo[3,4-d]pyrimidine]: the half-maximal inhibitory concentration (IC50) fell in the range of 1000 to 10000 nM in experiment [1] (Table 1, class symbols per key) and 100 to 1000 nM in experiment [2] (Table 1, class symbols per key).

In the case of `Clc1ccccc1N1CCN(c2ncnc3[nH]ccc23)CC1` [Entry 311, 4-[4-(2-chlorophenyl)piperazin-1-yl]-7H-pyrrolo[2,3-d]pyrimidine], the figures for the IC50 in experiment [1] and in experiment [2] were not below 10000 nM and 100 to 1000 nM, respectively.

Take `Brc1n[nH]c2ncnc(N3CCN(c4ccccc4)CC3)c12` [Entry 152, 3-bromo-4-(4-phenylpiperazin-1-yl)-1H-pyrazolo[3,4-d]pyrimidine]: the IC50 is not below 10000 nM in experiment [1] (Table 1, class symbols per key) and less than 100 nM in experiment [2] (Table 1, class symbols per key).

Consider `Cc1ccc(Cl)cc1N1CCN(c2ncnc3[nH]nc(N4CCN(C)CC4)c23)CC1` [Entry 391, 4-[4-(5-chloro-2-methylphenyl)piperazin-1-yl]-3-(4-methylpiperazin-1-yl)-1H-pyrazolo[3,4-d]pyrimidine], for which the IC50 in experiment [1] and in experiment [2] was 1000 to 10000 nM each time.

“4-[4-(5-chloro-2-methylphenyl)piperazin-1-yl]-3-(2-methylpropyl)-1H-pyrazolo[3,4-d]pyrimidine [Entry 355]”: the IC50 in experiment [1] is 1000 to 10000 nM; in experiment [2], less than 100 nM.

As to `Brc1n[nH]c2ncnc(N3CCN(c4ccc(OCc5ccccc5)cc4)CC3)c12` [Entry 125, 3-bromo-4-(4-{4-[(phenylmethyl)oxy]phenyl}piperazin-1-yl)-1H-pyrazolo[3,4-d]pyrimidine], the IC50 in experiment [1] (Table 1, class symbols per key) was not below 10000 nM; in experiment [2] (Table 1, class symbols per key), 100 to 1000 nM.

The record behind these values is patent US8076338B2, “Kinase modulators and methods of use” (Exelixis, Inc., priority 2004, dated 2011).
